The structures appear in SMILES notation.

One assay addresses PTGER2 (EP2) (Homo sapiens (Human), UniProt P43116). The experiment in a line: hEP2 b-arrestin assay (PathHunter HEK 293 PTGER2 b-arrestin cells). The format is cell-based. The settings on record: antagonistic activity, beta-arrestin assay; read-out: hEP2 b-arr IC50. Here is the method: Plate is pre-incubated 15 minutes at 37° C. Then five microliters of PGE2 (final conc. 5 μM) are transferred into the assay plate. Plate is incubated 120 minutes at 37° C.
(each concentration is measured in duplicate)

For a further assay, the target named is PTGER4 (EP4) (Homo sapiens (Human), UniProt P35408). The experiment in a line: cell-based.
Sequence of PTGER4 (EP4) (P35408 whole entry): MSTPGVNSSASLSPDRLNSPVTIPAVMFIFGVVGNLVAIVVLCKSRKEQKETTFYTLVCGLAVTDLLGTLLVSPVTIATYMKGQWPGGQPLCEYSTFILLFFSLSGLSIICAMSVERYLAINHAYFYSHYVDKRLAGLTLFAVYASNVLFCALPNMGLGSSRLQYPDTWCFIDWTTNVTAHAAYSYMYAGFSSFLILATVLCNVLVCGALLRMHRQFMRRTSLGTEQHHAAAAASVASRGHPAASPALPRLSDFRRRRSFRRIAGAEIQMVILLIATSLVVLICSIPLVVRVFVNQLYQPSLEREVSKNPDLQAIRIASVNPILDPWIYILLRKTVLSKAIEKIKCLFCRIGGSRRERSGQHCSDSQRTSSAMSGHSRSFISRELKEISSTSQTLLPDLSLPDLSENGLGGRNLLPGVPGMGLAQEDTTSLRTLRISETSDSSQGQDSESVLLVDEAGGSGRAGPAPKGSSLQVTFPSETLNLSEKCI

Sequence of PTGER2 (EP2) (P43116 whole entry): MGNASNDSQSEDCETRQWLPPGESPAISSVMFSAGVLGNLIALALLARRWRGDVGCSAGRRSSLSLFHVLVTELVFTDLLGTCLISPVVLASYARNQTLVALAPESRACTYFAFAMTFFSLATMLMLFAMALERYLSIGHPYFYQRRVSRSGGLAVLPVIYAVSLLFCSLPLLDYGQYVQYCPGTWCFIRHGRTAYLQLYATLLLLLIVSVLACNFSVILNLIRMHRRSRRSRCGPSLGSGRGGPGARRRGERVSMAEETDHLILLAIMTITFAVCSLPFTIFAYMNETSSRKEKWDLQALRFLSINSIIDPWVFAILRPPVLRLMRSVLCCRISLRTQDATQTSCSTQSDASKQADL

The term IC50 denotes the concentration that gives 50% inhibition. Regarding `CCc1cc(-c2cc(NCCc3cc(F)c4sccc4c3)ncn2)cc(C)c1CC(=O)O` [Example 542, (2-Ethyl-4-{6-[2-(7-fluoro-benzo[b]thiophen-5-yl)-ethylamino]-pyrimidin-4-yl}-6-methyl-phenyl)-acetic acid], the IC50 was found to be 609 nM on PTGER2 (EP2) and 91 nM at PTGER4 (EP4).

For the compound `COc1cc2c(cc1CCNc1cc(-c3ccc(CC(=O)O)c(OC(F)(F)F)c3)ncn1)OCCO2` [Example 450, (4-{6-[2-(7-Methoxy-2,3-dihydro-benzo[1,4]dioxin-6-yl)-ethylamino]-pyrimidin-4-yl}-2-trifluoromethoxy-phenyl)-acetic acid], the concentration for half-maximal inhibition (IC50) at PTGER2 (EP2) amounted to 66 nM; against PTGER4 (EP4) it was 97 nM.

As to `CCOc1cc(-c2cc(NCCc3ccc4ccccc4c3C)ncn2)ccc1-c1noc(=S)[nH]1` [Example 565, 3-(2-Ethoxy-4-{6-[2-(1-methyl-naphthalen-2-yl)-ethylamino]-pyrimidin-4-yl}-phenyl)-[1,2,4]oxadiazole-5(4H)-thione], the IC50 on PTGER2 (EP2) worked out at 58 nM; on PTGER4 (EP4) it was 23 nM.

Take `O=C(O)c1ccc(-c2cc(NCCc3ccc4scc(Cl)c4c3)ncn2)cc1OC1CCC1` [Example 430, 4-{6-[2-(3-Chloro-benzo[b]thiophen-5-yl)-ethylamino]-pyrimidin-4-yl}-2-cyclobutoxy-benzoic acid]: the IC50 was found to be 69 nM at PTGER2 (EP2) and 66 nM against PTGER4 (EP4).

With `CCOc1cc(-c2cc(NCCc3c(OC)cc4c(c3C)OCCO4)ncn2)ccc1CC(=O)O` [Example 399, (2-Ethoxy-4-{6-[2-(7-methoxy-5-methyl-2,3-dihydro-benzo[1,4]dioxin-6-yl)-ethylamino]-pyrimidin-4-yl}-phenyl)-acetic acid], the IC50 came to 10 nM at PTGER2 (EP2) and 30 nM against PTGER4 (EP4).

As for `COc1cc2c(c(F)c1CCNc1cc(-c3ccc(CC(=O)O)c(OC(F)F)c3)ncn1)OCCO2` [Example 442, (2-Difluoromethoxy-4-{6-[2-(5-fluoro-7-methoxy-2,3-dihydro-benzo[1,4]dioxin-6-yl)-ethylamino]-pyrimidin-4-yl}-phenyl)-acetic acid], the IC50 at PTGER2 (EP2) worked out at 82 nM; at PTGER4 (EP4) it was 27 nM.

Turning to `CCCc1cc(-c2cc(NCCc3cc4ccsc4c(F)c3OC)ncn2)ccc1C(=O)O` [Example 483, 4-{6-[2-(7-Fluoro-6-methoxy-benzo[b]thiophen-5-yl)-ethylamino]-pyrimidin-4-yl}-2-propyl-benzoic acid], the results for the IC50 on PTGER2 (EP2) and against PTGER4 (EP4) were 26 nM and 115 nM, respectively.

Regarding `CCCn1cc(-c2cc(NCCc3cc(F)c4sccc4c3)ncn2)cc1C(=O)O` [Example 548, 4-{6-[2-(7-Fluoro-benzo[b]thiophen-5-yl)-ethylamino]-pyrimidin-4-yl}-1-propyl-1H-pyrrole-2-carboxylic acid], the IC50 at PTGER2 (EP2) was 933 nM; against PTGER4 (EP4), 295 nM.

As for `O=C(O)c1n[nH]c2cc(-c3cc(NCCc4cc(F)c5sccc5c4)ncn3)ccc12` [Example 562, 6-{6-[2-(7-Fluoro-benzo[b]thiophen-5-yl)-ethylamino]-pyrimidin-4-yl}-1H-indazole-3-carboxylic acid], the figures for the IC50 at PTGER2 (EP2) and against PTGER4 (EP4) were 803 nM and 689 nM, respectively.

As to `O=C(O)c1ccc(-c2cc(NCCc3cc(F)c4sccc4c3)ncn2)cc1O` [Example 563, 4-{6-[2-(7-Fluoro-benzo[b]thiophen-5-yl)-ethylamino]-pyrimidin-4-yl}-2-hydroxy-benzoic acid], the results for the IC50 on PTGER2 (EP2) and against PTGER4 (EP4) were 985 nM and 582 nM, respectively.

For the compound `CCCc1cc(-c2cc(NCCc3cc4c(cc3F)OCCO4)ncn2)ccc1CC(=O)O` [Example 528, (4-{6-[2-(7-Fluoro-2,3-dihydro-benzo[1,4]dioxin-6-yl)-ethylamino]-pyrimidin-4-yl}-2-propyl-phenyl)-acetic acid], the IC50 at PTGER2 (EP2) was 513 nM; at PTGER4 (EP4), 198 nM.

In the case of `CCOc1cc(-c2cc(NCCc3cc4c(cc3OC)OCCO4)ncn2)cc(F)c1CC(=O)O` [Example 373, (2-Ethoxy-6-fluoro-4-{6-[2-(7-methoxy-2,3-dihydro-benzo[1,4]dioxin-6-yl)-ethylamino]-pyrimidin-4-yl}-phenyl)-acetic acid], the half-inhibitory concentration (IC50) stood at 257 nM at PTGER2 (EP2) and 118 nM against PTGER4 (EP4).

As to `CCc1cc(-c2cc(NCCc3ccc4sccc4c3F)ncn2)ccc1CC(=O)O` [Example 514, (2-Ethyl-4-{6-[2-(4-fluoro-benzo[b]thiophen-5-yl)-ethylamino]-pyrimidin-4-yl}-phenyl)-acetic acid], the IC50 on PTGER2 (EP2) was 262 nM; on PTGER4 (EP4), 112 nM.

For the compound `Cc1cc(-c2cc(NCCc3cc(F)c4sccc4c3)ncn2)ccc1CC(=O)O` [Example 544, (4-{6-[2-(7-Fluoro-benzo[b]thiophen-5-yl)-ethylamino]-pyrimidin-4-yl}-2-methyl-phenyl)-acetic acid], the IC50 at PTGER2 (EP2) turned out to be 851 nM; against PTGER4 (EP4), 452 nM.

Take `COc1cc2c(c(C)c1CCNc1cc(-c3ccc(C(=O)O)c(OC(C)C)c3)ncn1)OCCO2` [Example 432, 2-Isopropoxy-4-{6-[2-(7-methoxy-5-methyl-2,3-dihydro-benzo[1,4]dioxin-6-yl)-ethylamino]-pyrimidin-4-yl}-benzoic acid]: the figures for the IC50 at PTGER2 (EP2) and at PTGER4 (EP4) were 20 nM and 87 nM, respectively.

For the compound `Cc1cc(-c2cc(NCCc3cc(F)c4sccc4c3)ncn2)ccc1C(=O)O` [Example 555, 4-{6-[2-(7-Fluoro-benzo[b]thiophen-5-yl)-ethylamino]-pyrimidin-4-yl}-2-methyl-benzoic acid], the results for the IC50 at PTGER2 (EP2) and against PTGER4 (EP4) were 887 nM and 835 nM, respectively.

With `CCOc1cc2c(cc1CCNc1cc(-c3ccc(CC(=O)O)c(OC(F)F)c3)ncn1)OCCO2` [Example 510, (2-Difluoromethoxy-4-{6-[2-(7-ethoxy-2,3-dihydro-benzo[1,4]dioxin-6-yl)-ethylamino]-pyrimidin-4-yl}-phenyl)-acetic acid], the IC50 at PTGER2 (EP2) turned out to be 45 nM; against PTGER4 (EP4), 194 nM.

Consider `CCc1cc(-c2cc(NCCc3cc(F)c4sccc4c3)ncn2)ccc1C(=O)O` [Example 518, 2-Ethyl-4-{6-[2-(7-fluoro-benzo[b]thiophen-5-yl)-ethylamino]-pyrimidin-4-yl}-benzoic acid], for which the figures for the IC50 at PTGER2 (EP2) and on PTGER4 (EP4) were 116 nM and 176 nM, respectively.

As to `CCOc1cc2c(cc1CCNc1cc(-c3ccc(C(=O)O)c(OC4CC4)c3)ncn1)OCCO2` [Example 447, 2-Cyclopropoxy-4-{6-[2-(7-ethoxy-2,3-dihydro-benzo[1,4]dioxin-6-yl)-ethylamino]-pyrimidin-4-yl}-benzoic acid], the IC50 at PTGER2 (EP2) turned out to be 2 nM; on PTGER4 (EP4), 130 nM.

Consider `CCCOc1cc(-c2cc(NCCc3ccc4sccc4c3F)ncn2)ccc1CC(=O)O` [Example 393, (4-{6-[2-(4-Fluoro-benzo[b]thiophen-5-yl)-ethylamino]-pyrimidin-4-yl}-2-propoxy-phenyl)-acetic acid], for which the values for the IC50 on PTGER2 (EP2) and against PTGER4 (EP4) were 155 nM and 166 nM, respectively.

In the case of `COc1cc(-c2cc(NCCc3c(OC)cc4ccccc4c3C)ncn2)ccc1CC(=O)O` [Example 384, (2-Methoxy-4-{6-[2-(3-methoxy-1-methyl-naphthalen-2-yl)-ethylamino]-pyrimidin-4-yl}-phenyl)-acetic acid], the IC50 on PTGER2 (EP2) worked out at 145 nM; against PTGER4 (EP4) it was 28 nM.

Consider `CCOc1cc(-c2cc(NCCc3cc(F)c4sccc4c3)ncn2)ccc1OCCC(=O)O` [Example 422, 3-(2-Ethoxy-4-{6-[2-(7-fluoro-benzo[b]thiophen-5-yl)-ethylamino]-pyrimidin-4-yl}-phenoxy)-propionic acid], for which the IC50 stood at 249 nM at PTGER2 (EP2) and 23 nM on PTGER4 (EP4).

For `COc1cc2c(cc1CCNc1cc(-c3ccc(CC(=O)O)c(OC)c3)ncn1)OCCO2` [Example 383, (2-Methoxy-4-{6-[2-(7-methoxy-2,3-dihydro-benzo[1,4]dioxin-6-yl)-ethylamino]-pyrimidin-4-yl}-phenyl)-acetic acid], the figures for the IC50 at PTGER2 (EP2) and against PTGER4 (EP4) were 177 nM and 194 nM, respectively.

Regarding `CCn1cc(-c2cc(NCCc3cc(F)c4sccc4c3)ncn2)cc1C(=O)O` [Example 547, 1-Ethyl-4-{6-[2-(7-fluoro-benzo[b]thiophen-5-yl)-ethylamino]-pyrimidin-4-yl}-1H-pyrrole-2-carboxylic acid], the IC50 on PTGER2 (EP2) came out at 825 nM; at PTGER4 (EP4), 322 nM.

In the case of `CCc1cc(-c2cc(NCCc3ccc4ccccc4c3C)ncn2)ccc1C(=O)O` [Example 517, 2-Ethyl-4-{6-[2-(1-methyl-naphthalen-2-yl)-ethylamino]-pyrimidin-4-yl}-benzoic acid], the results for the IC50 at PTGER2 (EP2) and at PTGER4 (EP4) were 108 nM and 288 nM, respectively.

With `COc1cc2ccccc2c(C)c1CCNc1cc(-c2ccc(C(=O)O)c(OC3CC3)c2)ncn1` [Example 448, 2-Cyclopropoxy-4-{6-[2-(3-methoxy-1-methyl-naphthalen-2-yl)-ethylamino]-pyrimidin-4-yl}-benzoic acid], the IC50 amounted to 15 nM on PTGER2 (EP2) and 46 nM against PTGER4 (EP4).

Regarding `CCOc1cc(-c2cc(NCCc3ccc4ccsc4c3C)ncn2)sc1C(=O)O` [Example 376, 3-Ethoxy-5-{6-[2-(7-methyl-benzo[b]thiophen-6-yl)-ethylamino]-pyrimidin-4-yl}-thiophene-2-carboxylic acid], the IC50 on PTGER2 (EP2) was determined as 50 nM; against PTGER4 (EP4), 13 nM.

In the case of `O=C(O)c1ccc(-c2cc(NCCc3cc(F)c4sccc4c3)ncn2)cc1OC1CC1` [Example 449, 2-Cyclopropoxy-4-{6-[2-(7-fluoro-benzo[b]thiophen-5-yl)-ethylamino]-pyrimidin-4-yl}-benzoic acid], the values for the IC50 at PTGER2 (EP2) and at PTGER4 (EP4) were 83 nM and 46 nM, respectively.

`CCCc1cc(-c2cc(NCCc3c(OC)cc4c(c3F)OCCO4)ncn2)ccc1CC(=O)O` [Example 408, (4-{6-[2-(5-Fluoro-7-methoxy-2,3-dihydro-benzo[1,4]dioxin-6-yl)-ethylamino]-pyrimidin-4-yl}-2-propyl-phenyl)-acetic acid]: the IC50 was determined as 29 nM at PTGER2 (EP2) and 24 nM against PTGER4 (EP4).
